Results: ChEMBL document CHEMBL3046559, “Sterile oat (Avena sterilis L.) cross-resistance profile to ACCase-inhibiting herbicides in Greece” (2012)

Tests used:
Assay type in all cases: functional
[1] = test system: Avena sterilis; assay: Herbicidal activity against Avena sterilis accession P14 assessed as weed survival at 32 times field recommended herbicide dose
[2] = test system: Avena sterilis; assay: Herbicidal activity against Avena sterilis accession P12 assessed as weed survival at 4 times field recommended herbicide dose
[3] = test system: Avena sterilis; assay: Herbicidal activity against Avena sterilis accession P22 assessed as weed survival at 8 times field recommended herbicide dose
[4] = test system: Avena sterilis; assay: Herbicidal activity against Avena sterilis accession P01 assessed as weed survival at 8 times field recommended herbicide dose
[5] = test system: Avena sterilis; assay: Herbicidal activity against Avena sterilis accession P03 assessed as weed survival at 8 times field recommended herbicide dose
[6] = test system: Avena sterilis; assay: Herbicidal activity against Avena sterilis accession P21S assessed as weed survival at 1 times field recommended herbicide dose
[7] = test system: Avena sterilis; assay: Herbicidal activity against Avena sterilis accession P19S assessed as weed survival at 1/32 times field recommended herbicide dose
[8] = test system: Avena sterilis; assay: Herbicidal activity against Avena sterilis accession P05 assessed as weed survival at 1 times field recommended herbicide dose
[9] = test system: Avena sterilis; assay: Herbicidal activity against Avena sterilis accession P10S assessed as weed survival at 1/4 times field recommended herbicide dose
[10] = test system: Avena sterilis; assay: Herbicidal activity against Avena sterilis accession P06S assessed as weed survival at 1/16 times field recommended herbicide dose
[11] = test system: Avena sterilis; assay: Herbicidal activity against Avena sterilis accession P14 assessed as induction of weed mortality
[12] = test system: Avena sterilis; assay: Herbicidal activity against Avena sterilis accession P12 assessed as weed survival at 8 times field recommended herbicide dose
[13] = test system: Avena sterilis; assay: Herbicidal activity against Avena sterilis accession P20 assessed as weed survival at 8 times field recommended herbicide dose
[14] = test system: Avena sterilis; assay: Herbicidal activity against Avena sterilis accession P05 assessed as weed survival at 4 times field recommended herbicide dose
[15] = test system: Avena sterilis; assay: Herbicidal activity against Avena sterilis accession P16 assessed as weed survival at 1 times field recommended herbicide dose
[16] = test system: Avena sterilis; assay: Herbicidal activity against Avena sterilis accession P14 assessed as weed survival at 4 times field recommended herbicide dose
[17] = test system: Avena sterilis; assay: Herbicidal activity against Avena sterilis accession P14 assessed as weed survival at 8 times field recommended herbicide dose
[18] = test system: Avena sterilis; assay: Herbicidal activity against Avena sterilis accession P15 assessed as weed survival at 16 times field recommended herbicide dose
[19] = test system: Avena sterilis; assay: Herbicidal activity against Avena sterilis accession P07 assessed as weed survival at 4 times field recommended herbicide dose
[20] = test system: Avena sterilis; assay: Herbicidal activity against Avena sterilis accession P18 assessed as weed survival at 8 times field recommended herbicide dose
[21] = test system: Avena sterilis; assay: Herbicidal activity against Avena sterilis accession P02 assessed as weed survival at 32 times field recommended herbicide dose
[22] = test system: Avena sterilis; assay: Herbicidal activity against Avena sterilis accession P14 assessed as weed survival at 16 times field recommended herbicide dose
[23] = test system: Avena sterilis; assay: Herbicidal activity against Avena sterilis accession P09 assessed as weed survival at 8 times field recommended herbicide dose
[24] = test system: Avena sterilis; assay: Herbicidal activity against Avena sterilis accession P20 assessed as weed survival at 1 times field recommended herbicide dose
[25] = test system: Avena sterilis; assay: Herbicidal activity against Avena sterilis accession P10S assessed as induction of weed mortality
[26] = test system: Avena sterilis; assay: Herbicidal activity against Avena sterilis accession P06S assessed as induction of weed mortality
[27] = test system: Avena sterilis; assay: Herbicidal activity against Avena sterilis accession P09 assessed as induction of weed mortality
[28] = test system: Avena sterilis; assay: Herbicidal activity against Avena sterilis accession P20 assessed as weed survival at 16 times field recommended herbicide dose
[29] = test system: Avena sterilis; assay: Herbicidal activity against Avena sterilis accession P17 assessed as weed survival at 32 times field recommended herbicide dose
[30] = test system: Avena sterilis; assay: Herbicidal activity against Avena sterilis accession P13S assessed as weed survival at 1/8 times field recommended herbicide dose
[31] = test system: Avena sterilis; assay: Herbicidal activity against Avena sterilis accession P10S assessed as weed survival at 1/32 times field recommended herbicide dose
[32] = test system: Avena sterilis; assay: Herbicidal activity against Avena sterilis accession P07 assessed as weed survival at 1 times field recommended herbicide dose
[33] = test system: Avena sterilis; assay: Herbicidal activity against Avena sterilis accession P17 assessed as induction of weed mortality
[34] = test system: Avena sterilis; assay: Herbicidal activity against Avena sterilis accession P13S assessed as weed survival at 1/32 times field recommended herbicide dose
[35] = test system: Avena sterilis; assay: Herbicidal activity against Avena sterilis accession P03 assessed as weed survival at 1 times field recommended herbicide dose
[36] = test system: Avena sterilis; assay: Herbicidal activity against Avena sterilis accession P22 assessed as weed survival at 4 times field recommended herbicide dose
[37] = test system: Avena sterilis; assay: Herbicidal activity against Avena sterilis accession P02 assessed as induction of weed mortality
[38] = test system: Avena sterilis; assay: Herbicidal activity against Avena sterilis accession P15 assessed as weed survival at 32 times field recommended herbicide dose
[39] = test system: Avena sterilis; assay: Herbicidal activity against Avena sterilis accession P16 assessed as induction of weed mortality
[40] = test system: Avena sterilis; assay: Herbicidal activity against Avena sterilis accession P05 assessed as weed survival at 8 times field recommended herbicide dose
[41] = test system: Avena sterilis; assay: Herbicidal activity against Avena sterilis accession P18 assessed as induction of weed mortality
[42] = test system: Avena sterilis; assay: Herbicidal activity against Avena sterilis accession P09 assessed as weed survival at 16 times field recommended herbicide dose
[43] = test system: Avena sterilis; assay: Herbicidal activity against Avena sterilis accession P20 assessed as induction of weed mortality
[44] = test system: Avena sterilis; assay: Herbicidal activity against Avena sterilis accession P09 assessed as weed survival at 32 times field recommended herbicide dose
[45] = test system: Avena sterilis; assay: Herbicidal activity against Avena sterilis accession P08 assessed as weed survival at 1 times field recommended herbicide dose
[46] = test system: Avena sterilis; assay: Herbicidal activity against Avena sterilis accession P13S assessed as weed survival at 1 times field recommended herbicide dose
[47] = test system: Avena sterilis; assay: Herbicidal activity against Avena sterilis accession P09 assessed as weed survival at 1 times field recommended herbicide dose
[48] = test system: Avena sterilis; assay: Herbicidal activity against Avena sterilis accession P03 assessed as induction of weed mortality
[49] = test system: Avena sterilis; assay: Herbicidal activity against Avena sterilis accession P05 assessed as weed survival at 32 times field recommended herbicide dose
[50] = test system: Avena sterilis; assay: Herbicidal activity against Avena sterilis accession P10S assessed as weed survival at 1/16 times field recommended herbicide dose
[51] = test system: Avena sterilis; assay: Herbicidal activity against Avena sterilis accession P01 assessed as weed survival at 4 times field recommended herbicide dose
[52] = test system: Avena sterilis; assay: Herbicidal activity against Avena sterilis accession P03 assessed as weed survival at 4 times field recommended herbicide dose
[53] = test system: Avena sterilis; assay: Herbicidal activity against Avena sterilis accession P12 assessed as weed survival at 32 times field recommended herbicide dose
[54] = test system: Avena sterilis; assay: Herbicidal activity against Avena sterilis accession P15 assessed as induction of weed mortality
[55] = test system: Avena sterilis; assay: Herbicidal activity against Avena sterilis accession P13S assessed as weed survival at 1/4 times field recommended herbicide dose
[56] = test system: Avena sterilis; assay: Herbicidal activity against Avena sterilis accession P07 assessed as induction of weed mortality
[57] = test system: Avena sterilis; assay: Herbicidal activity against Avena sterilis accession P04 assessed as weed survival at 4 times field recommended herbicide dose
[58] = test system: Avena sterilis; assay: Herbicidal activity against Avena sterilis accession P12 assessed as weed survival at 1 times field recommended herbicide dose

COCc1cnc(C2=NC(C)(C(C)C)C(=O)N2)c(C(=O)O)c1 (stereo unspecified) [IMAZAMOX]
Survival [1]: 0%
Survival [2]: 0%
Survival [3]: 0%
Survival [4]: 0%
Survival [5]: 0%
Survival [6]: 0%
Survival [7]: 100%
Survival [8]: 0%
Survival [9]: 20%
Survival [10]: 93%
GR50 [11]: <50 gAi/ha
Survival [12]: 0%
Survival [13]: 0%
Survival [14]: 0%
Survival [15]: 0%
Survival [16]: 0%
Survival [17]: 0%
Survival [18]: 0%
Survival [19]: 0%
Survival [20]: 0%
Survival [21]: 0%
Survival [22]: 0%
Survival [23]: 0%
Survival [24]: 0%
GR50 [25]: 7 gAi/ha
GR50 [26]: 9 gAi/ha
GR50 [27]: <50 gAi/ha
Survival [28]: 0%
Survival [29]: 0%
Survival [30]: 50%
Survival [31]: 100%
Survival [32]: 0%
GR50 [33]: <50 gAi/ha
Survival [34]: 100%
Survival [35]: 0%
Survival [36]: 0%
GR50 [37]: <50 gAi/ha
Survival [38]: 0%
GR50 [39]: <50 gAi/ha
Survival [40]: 0%
GR50 [41]: <50 gAi/ha
Survival [42]: 0%
GR50 [43]: <50 gAi/ha
Survival [44]: 0%
Survival [45]: 3%
Survival [46]: 0%
Survival [47]: 0%
GR50 [48]: <50 gAi/ha
Survival [49]: 0%
Survival [50]: 80%
Survival [51]: 0%
Survival [52]: 0%
Survival [53]: 0%
GR50 [54]: <50 gAi/ha
Survival [55]: 40%
GR50 [56]: <50 gAi/ha
Survival [57]: 0%
Survival [58]: 0%

CCc1cc(C)cc(CC)c1-c1c(OC(=O)C(C)(C)C)n2n(c1=O)CCOCC2 [PINOXADEN]
Survival [1]: 0%
Survival [2]: 0%
Survival [3]: 0%
Survival [4]: 0%
Survival [5]: 0%
Survival [6]: 0%
Survival [7]: 100%
Survival [8]: 20%
Survival [9]: 0%
Survival [10]: 80%
GR50 [11]: <40 gAi/ha
Survival [12]: 0%
Survival [13]: 0%
Survival [14]: 0%
Survival [15]: 0%
Survival [16]: 0%
Survival [17]: 0%
Survival [18]: 0%
Survival [19]: 0%
Survival [20]: 0%
Survival [21]: 0%
Survival [22]: 0%
Survival [23]: 0%
Survival [24]: 63%
GR50 [25]: 4.1 gAi/ha
GR50 [26]: 3.5 gAi/ha
GR50 [27]: <40 gAi/ha
Survival [28]: 0%
Survival [29]: 0%
Survival [30]: 20%
Survival [31]: 100%
Survival [32]: 0%
GR50 [33]: <40 gAi/ha
Survival [34]: 100%
Survival [35]: 20%
Survival [36]: 0%
GR50 [37]: <40 gAi/ha
Survival [38]: 0%
GR50 [39]: <40 gAi/ha
Survival [40]: 0%
GR50 [41]: <40 gAi/ha
Survival [42]: 0%
GR50 [43]: 42 gAi/ha
Survival [44]: 0%
Survival [45]: 20%
Survival [46]: 0%
Survival [47]: 0%
GR50 [48]: <40 gAi/ha
Survival [49]: 0%
Survival [50]: 97%
Survival [51]: 17%
Survival [52]: 3%
Survival [53]: 0%
GR50 [54]: <40 gAi/ha
Survival [55]: 3%
GR50 [56]: <40 gAi/ha
Survival [57]: 20%
Survival [58]: 0%
